A word on the melting point: it is the temperature of the solid-liquid transition.

In the case of `COC(=O)C(=CC(=CN(C)C)c1ccc(C)cc1[N+](=O)[O-])[N+](=O)[O-]`, the melting point lay in the range of 213 to 215 °C.
In turn, `CN1CC[C@@H](c2cc(Cl)ccc2O)[C@@H]1c1ccccc1I` (relative stereo) yielded a melting point of 123 °C.
Molecule `CCCCN1CCN(c2cccc3c2C[C@H](NC(C)=O)CC3)CC1` registered a melting point of 118 to 120 °C.
Consider `Cc1csc(CNC(=O)c2sc(N3CCN(CC4CC4(F)F)C3=O)nc2C)n1` (stereo not given), for which the melting point lay within 157 to 159 °C.
`O=c1oc(-c2cccc(Cl)c2)cc(O)c1SCCc1ccccc1` had a melting point of 125 to 127 °C.
As for `CC1=CC(=O)C(C)S(=O)(=O)N1C` (stereo not given), the figure is 73 to 75 °C; as for `COc1ccccc1-n1c(=O)[nH]c2ccc(-c3cccc(O)c3)nc21`, 240 to 242 °C.
For `CC(=O)Nc1cccc2c1C(=O)OC2C` (stereo not given), the melting point is 112 °C.
Molecule `Clc1ccc(-c2nnnn2Cc2cccnc2)cc1Cl` gave a melting point of 166 to 168 °C.
In the case of `O=C(Cc1ccccc1Nc1c(Cl)cccc1Cl)OCCc1ccccn1`, the melting point was 67 to 68 °C.
As for `Cc1ncsc1NC(=O)Nc1ccc(-n2nc(C3CC3)cc2C(F)(F)F)nc1`, the figure is 244 to 247 °C.
`COc1cc(OC)nc(OC(C(=O)O)C(C)(c2ccccc2)c2ccccc2)n1` (stereo not given): the melting point is 229 to 234 °C.
`NCC#Cc1ccc(Cl)cc1C(=O)c1ccccc1Cl` yielded a melting point of 81 to 89 °C.
Consider `C=C(C)C(=O)OCCCOc1ccc(-c2cc(OC(=O)C(=C)C)cc(-c3ccc(OCCOC(=O)C(=C)C)cc3)c2)cc1F`, for which the melting point worked out at 70 °C.
With `CC(=O)CNC(=O)c1cc2c(nc(C)n2C)c2c1CCC1(Cc3ccccc3C1)N2`, the melting point was in the range of 222 to 223 °C.
The figure for `Cc1c(C)c2c(c(C)c1O)CC(CCI)O2` (racemic) is 96 to 97 °C.
Regarding `Cc1cc2c(cc1C)C1(CO2)C(=O)N(Cc2ccccn2)c2ccccc21` (stereo not given), the melting point lay within 165 to 168 °C.
Molecule `COc1ccc2cc(C(=O)O)oc(=O)c2c1OC` yielded a melting point of 262 to 263 °C.
The figure for `CN1CCC(c2cccc3ccc(N)cc23)CC1` is 170 to 171 °C.
Take `CCCCOC(=O)C(NC(=O)OC(C)(C)C)c1c[nH]c2ccccc12` (stereo not given): the melting point was 127 to 128 °C.
`O=C(O)c1ccccc1C(=O)c1ccc(Cl)c(S(=O)(=O)Cl)c1` had a melting point of 176 to 177 °C.
Molecule `Cc1c(SCc2ccco2)ccnc1CSc1nc2ccccc2n1CCN(C)C` registered a melting point of 87 to 89 °C.
`O=S(=O)(NCCCl)c1ccccc1`: the melting point fell in the range of 58 to 62 °C.
In turn, `Cc1c[nH]c(=O)nc1N` returned a melting point of 264 to 269 °C.
In the case of `O=C1CCC(Cn2c(=O)[nH]c3ncc(-c4ccc(O)cc4)nc32)N1` (stereo not given), the melting point fell in the range of 338 to 340 °C.
Regarding `CS(=O)(=O)Nc1ccc(C23CC2C(=O)NC3=O)cc1` (stereo not given), the melting point fell in the range of 208 to 209 °C.
As for `CCOC(=O)c1cnc2ccc(Oc3ccccc3)nc2c1Cl`, the melting point lay in the range of 133 to 137 °C.
Regarding `Cc1c(C(=O)O)nc2ccc3c(c2c1-c1ccc2c(c1)OCO2)OCO3`, the melting point was in the range of 219 to 222 °C.
On to `O=Cc1ccc(OC2CCCC2)c(Oc2ccc([N+](=O)[O-])cc2Br)c1`, for which the melting point lay within 92 to 94 °C.
The figure for `CC(C)(C)NCC(O)COc1cc(Cl)ccc1-c1ccc(=S)[nH]n1` (stereo not given) is 195 to 198 °C; for `CC1(C)C(=O)N(c2ccc(C#N)c(C(F)(F)F)c2)C(=O)N1CC1CC1CN1C(=O)N(c2ccc(C#N)c(C(F)(F)F)c2)C(=O)C1(C)C` (stereo not given) it is 178 to 180 °C.
As for `ON=C1CCCc2c1ccc1ccccc21`, the figure is 174 to 175 °C; as for `COC(=O)c1ccc2c(c1)C(=O)C(Cc1cccc(C(=O)O)c1)O2` (stereo not given), 140 to 143 °C.
Molecule `Cc1c(C)c(C(=O)O)c(C)c(C)c1C(=O)O` had a melting point greater than 300 °C.
In turn, `CC(C)C(=NO)c1ccc(Cl)cc1` yielded a melting point of 91 to 117 °C.
Molecule `CCOC(=O)c1nc(N)sc1C(=O)C(C)Br` (stereo not given) returned a melting point of 158 to 160 °C.
`O=C1C2CCCCN2C(=O)N1c1ccccc1` (stereo not given) returned a melting point of 186 to 187 °C.
On to `CC1(C)CCC(C)(C)c2cc(C3(c4ccc(C(=O)O)cc4)OCCO3)c(OCc3ccccc3)cc21`, for which the melting point fell in the range of 222 to 228 °C.
Turning to `Cc1ccc2nc(-c3ccccc3)cc(Cl)c2c1`, the melting point was in the range of 90 to 93 °C.
`COC(=O)[C@@H]1CC(=O)N(c2ccc(O)cc2)C1` gave a melting point of 123 °C.
Take `COC(=O)CCC(=O)c1ccc(-c2ccc(Cl)cc2)o1`: the melting point was 99 to 100 °C.
The figure for `C#CCn1c2ccccc2c2cc(Br)ccc21` is 142 to 149 °C.
Turning to `COC(=O)C[C@H](O)C[C@H](O)C=Cc1c(-c2ccc(F)cc2)c(-c2ccccc2)c(C(=O)Nc2ccccc2)n1C(C)C`, the melting point was 154 to 155 °C.
In the case of `COc1ccc(C2C=C3CN(C)CCC3C3C(=O)N(C)C(=O)C23)cc1` (stereo not given), the melting point was in the range of 129 to 130 °C.
For the molecule `CCCC[Si](C)(C)CCSCCCNC(=O)n1cc(F)c(=O)[nH]c1=O`, the melting point is 83.5 to 84 °C.
Take `CCn1cc(C(=O)O)c(=O)c2cnc(N3CCN(Cc4ccc(NC(C)=O)cc4)CC3)nc21`: the melting point fell in the range of 216 to 219 °C.
`Cc1cc(CN(Cc2ccco2)c2sc(-c3ccc(C(F)(F)F)cc3)nc2C)ccc1OC(C)(C)C(=O)O` yielded a melting point of 80 °C.
The molecule `CSc1cc(C(C)C)c(NC(=O)C2c3ccccc3COc3ccc(C)cc32)c(C(C)C)c1` (stereo not given) displayed a melting point of 126 °C.
In turn, `Cc1cc(C2=C(c3cc(C)sc3C)CCC=C2)c(C)s1` yielded a melting point of 55 to 57 °C.
Consider `N#CC1(C#N)CN=C(O)C(c2cc(O)c(O)c([N+](=O)[O-])c2)=N1`, for which the melting point is greater than 300 °C.
The molecule `COc1cc2c(cc1OC)C(=O)C(C(=O)C(F)(F)F)CS2` (stereo not given) showed a melting point of 148 to 151 °C.
Molecule `CC1CC(=O)N(CCO)N=C1c1ccc2c(c1)CCC(=O)N2C` (stereo not given) yielded a melting point of 171 to 173 °C.
`c1cncc(-c2ccsc2)c1`: the melting point is 75 to 77 °C.
Turning to `CC(CCNC1=Nc2cccc3cccc1c23)c1cccnc1` (stereo not given), the melting point lay in the range of 160 to 163 °C.
`NS(=O)(=O)c1ccc(N2N=C(C(F)(F)F)CC2c2ccc(F)cc2F)cc1` (stereo not given) gave a melting point of 161 to 162 °C.
As for `CC(=O)N1CCN(CCSc2ccnc(CSc3nc4ccccc4[nH]3)c2C)CC1`, the melting point lay in the range of 129 to 131 °C.
As for `CCCCCCCCCCCCCCCCc1cc(-c2ccccn2)nc(-c2ccccn2)c1`, the figure is 97.5 to 99 °C.
`O=C1CCN(c2nc(=O)c3cccnc3s2)CC1` came in with a melting point of 222 to 225 °C.
For the molecule `COc1ccc(C#Cc2cc(Cl)cc3c2OC(CC(F)(F)F)C(C(=O)O)=C3)cc1` (stereo not given), the melting point is 218 to 219 °C.
As for `Cc1cccnc1C(O)c1ccc(N)cc1` (stereo not given), the figure is 153 to 154 °C.
`CCOC(=O)C(C(=O)OCC)C(=O)c1ccc(C(F)(F)F)cc1[N+](=O)[O-]` returned a melting point of 59 to 60 °C.
The molecule `COc1ccc(C(Cc2ccccc2)C2=C(C)N=NC2=O)cc1OC1CCCC1` (stereo not given) displayed a melting point of 88 to 90 °C.
In turn, `O=C1Cc2cc3c(CCC4CCN(Cc5ccc(Br)cc5)CC4)noc3cc2N1` registered a melting point of 177 to 178 °C.
In turn, `CC(C)=CCCC(C)=CCCC(C)=CCCC(C)=CC=CC(C)=CC(=O)O` had a melting point of 45.5 to 46.5 °C.
As to `CSc1ccc(N)c(C(=O)O)c1`, the melting point was 145 to 150 °C.
As for `O=C(O)C(Cc1c[nH]cn1)N1C(=O)c2ccccc2C1=O` (stereo not given), the figure is 280 to 285 °C; as for `COc1ccc(/C=C/c2nc3c([nH]2)c(=O)n(C)c(=O)n3C)c(OC)c1C`, greater than 280 °C.
Molecule `O=S1C(Cl)=C(Cl)CN1C1CCCCC1` (stereo not given) displayed a melting point of 115 to 116 °C.
Take `COc1cc(OC)c2c(=O)[nH]c(-c3cc(C)c(OCCN4CC(NC(C)=O)C4)c(C)c3)nc2c1`: the melting point is 112 to 114 °C.
Take `NS(=O)(=O)Oc1ccc(C(F)(F)F)cc1`: the melting point is 111 to 112 °C.
As for `CNc1cc(NS(=O)(=O)c2cccc(Cl)c2)nc(NC)n1`, the melting point lay within 167 to 168 °C.
In the case of `Cc1nc(-c2c(Cl)cc(C(F)(F)F)cc2Cl)[nH]c1S(N)(=O)=O`, the melting point was in the range of 266 to 267 °C.
Regarding `COc1cc2ncnc(N3CCN(C(=O)NCc4ccc(C(C)C)cc4)CC3)c2cc1OC`, the melting point fell in the range of 135 to 136 °C.
In the case of `O=C(c1ccc(-c2cc[nH]n2)cc1)N1Cc2cccn2Cc2ccccc21`, the melting point was in the range of 219 to 221 °C.
The figure for `O=[N+]([O-])c1cc(C(c2ccc(NCc3ccccc3)c([N+](=O)[O-])c2)(C(F)(F)F)C(F)(F)F)ccc1NCc1ccccc1` is 168 to 172 °C; for `Cc1nn(C)c2c(=O)[nH]cnc12` it is 303 to 305 °C; for `O=c1ccn(CCO)c(C(O)c2ccccc2F)c1O` (stereo not given) it is 177 to 178 °C.
As for `CCOC(=O)c1c(CC)nn2ccc3oc(C)cc3c12`, the figure is 89 to 90 °C; as for `CNc1ccc2ccccc2c1-c1c(P(c2ccccc2)c2ccccc2)ccc2ccccc12`, 100 °C; as for `CC(=O)c1cc2c(s1)S(=O)CCN(CCCCN1CCN(c3ncccn3)CC1)C2=O` (stereo not given), 103 to 106 °C.
The figure for `CC(Br)c1ccc(-c2nc3ccccc3o2)cc1` (stereo not given) is 128 to 131 °C.
The molecule `CC1(C)Nc2cc(F)c(F)cc2-n2cccc21` gave a melting point of 123 to 125 °C.
`CS(=O)(=O)c1ccc(-c2nn3c(c2-c2ccc(F)cc2)OCCCC3)cc1` displayed a melting point of 167 to 168 °C.
Turning to `CCCCc1oc2ccccc2c1C(=O)Nc1ccc(-c2ccc(OCC#N)cc2)cc1`, the melting point lay in the range of 143 to 144 °C.
As for `CCc1c(C)[nH]c2cc(OCCOc3ccccc3)c(Cl)cc2c1=O`, the figure is 290 to 292 °C; as for `COC(=O)Cn1c(C(=O)Nc2nc(-c3cc(OC)ccc3OC)c(CC3CCCCC3)s2)cc2cc(C)cc(C)c21`, 89 to 92 °C.
`CC(C)(C)OC(=O)N1CCn2c(c(C(N)=O)c(C#N)c2-c2ccccc2)C1`: the melting point was 214 to 215 °C.
`Cc1nnc(NCc2ccccc2)s1` returned a melting point of 140 °C.
Turning to `CN1CCN(c2ccc(-c3cnc4c(c3)C(O)CCN4)cn2)CC1` (stereo not given), the melting point was in the range of 124 to 128 °C.
`c1ccc(-c2n[nH]c3c2Cc2ccccc2-3)cc1` registered a melting point of 234 to 236 °C.

These data come from a melting point compilation (Tetko et al.; mined from patent text by program, amines drawn as free bases though some values may be those of a salt).
